Source: patent US20240342320A1, “POLYPEPTIDE TARGETING INTEGRIN ALPHA 6 AND USE THEREOF” (GUANGZHOU GENBIONOVA MEDICAL TECHNOLOGY CO., LTD., priority 2021, published 2024)
Where two headings read alike, the source gives them in different places. Positions of bridges follow the written chain, without caps; N, C: chain ends. Non-standard residues stand in square brackets, D forms with d. Residues, ends and D or L forms follow the SMILES beside them. *: point of attachment. NOTA = O=C(O)CN1CCN(CC(=O)O)CCN(CC(=O)*)CC1; PEG4 = NCCOCCOCCOCCOCCC(=O)O

What was measured:
integrin α6β4 [1] = molecular target: T1, integrin α6β4 (Homo sapiens, UniProt P16144+P23229); assay: Microscale thermophoresis (MST) affinity to integrin α6β4; format: binding; details: MST
T1 sequence (P23229 24-1050 limits assumed): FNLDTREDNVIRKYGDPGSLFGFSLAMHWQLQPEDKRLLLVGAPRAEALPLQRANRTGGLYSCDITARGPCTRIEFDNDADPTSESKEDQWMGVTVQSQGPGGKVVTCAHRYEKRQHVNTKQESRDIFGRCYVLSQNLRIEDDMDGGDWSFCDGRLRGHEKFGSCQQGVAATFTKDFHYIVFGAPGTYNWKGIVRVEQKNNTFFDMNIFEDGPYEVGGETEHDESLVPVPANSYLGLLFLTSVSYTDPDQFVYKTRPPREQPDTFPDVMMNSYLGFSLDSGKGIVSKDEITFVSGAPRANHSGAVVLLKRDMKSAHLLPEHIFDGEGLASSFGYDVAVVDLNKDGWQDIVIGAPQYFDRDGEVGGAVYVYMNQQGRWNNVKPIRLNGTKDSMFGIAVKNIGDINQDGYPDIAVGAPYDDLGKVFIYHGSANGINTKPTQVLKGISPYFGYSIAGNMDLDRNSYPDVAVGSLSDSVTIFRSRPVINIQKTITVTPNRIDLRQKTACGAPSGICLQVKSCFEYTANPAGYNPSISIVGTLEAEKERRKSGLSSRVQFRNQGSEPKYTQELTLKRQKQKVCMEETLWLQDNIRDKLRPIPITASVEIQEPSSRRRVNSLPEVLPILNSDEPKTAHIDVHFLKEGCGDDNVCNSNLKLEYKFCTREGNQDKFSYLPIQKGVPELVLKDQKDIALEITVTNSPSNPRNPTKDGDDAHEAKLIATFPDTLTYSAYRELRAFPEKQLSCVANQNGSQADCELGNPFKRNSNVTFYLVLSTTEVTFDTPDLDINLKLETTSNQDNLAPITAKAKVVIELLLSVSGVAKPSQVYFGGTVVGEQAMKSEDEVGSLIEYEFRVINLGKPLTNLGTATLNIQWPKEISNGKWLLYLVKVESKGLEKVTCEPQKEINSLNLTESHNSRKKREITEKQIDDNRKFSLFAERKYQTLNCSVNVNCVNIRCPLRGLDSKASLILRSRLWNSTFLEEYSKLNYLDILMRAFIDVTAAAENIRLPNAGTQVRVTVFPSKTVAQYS
T1 sequence (P16144 28-710 partner limits assumed): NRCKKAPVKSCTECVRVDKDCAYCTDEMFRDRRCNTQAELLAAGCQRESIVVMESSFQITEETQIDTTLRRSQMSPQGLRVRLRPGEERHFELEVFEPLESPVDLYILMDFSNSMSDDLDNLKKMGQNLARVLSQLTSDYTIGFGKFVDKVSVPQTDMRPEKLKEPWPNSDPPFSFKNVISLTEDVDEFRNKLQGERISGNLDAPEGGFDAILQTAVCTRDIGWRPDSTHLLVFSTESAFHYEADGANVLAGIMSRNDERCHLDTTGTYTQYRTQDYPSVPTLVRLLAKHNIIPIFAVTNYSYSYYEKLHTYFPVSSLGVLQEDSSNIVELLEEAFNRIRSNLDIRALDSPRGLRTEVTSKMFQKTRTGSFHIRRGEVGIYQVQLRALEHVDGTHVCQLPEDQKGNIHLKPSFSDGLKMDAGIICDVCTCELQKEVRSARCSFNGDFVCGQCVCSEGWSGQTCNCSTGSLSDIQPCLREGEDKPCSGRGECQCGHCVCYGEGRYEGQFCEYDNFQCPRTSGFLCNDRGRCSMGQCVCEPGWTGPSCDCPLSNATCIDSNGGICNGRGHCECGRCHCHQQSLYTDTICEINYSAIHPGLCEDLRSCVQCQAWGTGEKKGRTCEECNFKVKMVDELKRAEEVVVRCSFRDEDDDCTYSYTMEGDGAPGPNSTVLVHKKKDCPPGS
Description: (§1) The affinity between these 18 polypeptides and integrin α6β4 was detected by microscale thermophoresis (MST) method as follows: • 1) Integrin α6β4 protein was dissolved to 800 nM, and polypeptide was dissolved to 100 μM. • 2) A RED-tris-NTA second-generation dye was diluted to 100 nM by using the MO series RED-tris-NTA protein labeling kit. • 3) 100 μl α6β4 protein was mixed with 50 μl dye and incubated at room temperature for 30 min, so that the α6β4 protein binds to the dye. • 4) 10 μl polypeptide was transferred into a PCR tube, and was diluted with PBST (containing 0.05% Tween 20) at a ratio of 1:1 to 16 gradients of concentrations. • 5) 3 μl protein/dye mixture was transferred into a PCR tube, 3 μl of 16 different concentrations of polypeptides was respectively added and mixed well. • 6) The mixture was absorbed by capillary and loaded on machine (instrument model Monolith NT.115) to assay, parameters were set as 80% LED/excitation power and medium MST power. • 7) MO. Affinity Analysis software was used to calculate the equilibrium dissociation constant KD between α6β4 protein and polypeptide by KD fitting mode.

integrin α6β4 [2] = molecular target: T2, integrin α6β4 (Homo sapiens, UniProt P23229); assay: as above; format: binding; details: for Affinity relative to RWY: relative to CRWYDENAC (RWY) = 1.00
T2 sequence (P23229 24-1050 limits assumed): T1 sequence (P23229 24-1050 limits assumed)
T2 sequence (P16144 28-710 partner limits assumed): T1 sequence (P16144 28-710 partner limits assumed)
Description: as §1

[3] = integrin α6β4, determination 1, read-out: KD (um) 1
[4] = integrin α6β4, determination 2, read-out: KD (um) 2
[5] = integrin α6β4, determination 3, read-out: KD (um) 3
[6] = integrin α6β4, mean of 3, read-out: KD Mean value (μm)

Structure (SMILES)	Kd (integrin α6β4 [1]; [3]) [µM]	Kd (integrin α6β4 [1]; [4]) [µM]	Kd (integrin α6β4 [1]; [5]) [µM]	Kd (integrin α6β4 [1]; integrin α6β4, read-out: KD) [µM]	Affinity relative to RWY (integrin α6β4 [2])	Kd (integrin α6β4 [1]; [6]) [µM]	Kd (integrin α6β4 [2]; MST, integrin α6β4) [µM]
C[C@@H]1NC(=O)[C@H](CC(N)=O)NC(=O)[C@H](CCC(=O)O)NC(=O)[C@H](CC(=O)O)NC(=O)[C@H](Cc2ccc(O)cc2)NC(=O)[C@H](Cc2c[nH]c3ccccc23)NC(=O)[C@H](CCCNC(=N)N)NC(=O)[C@@H](N)CSSC[C@@H](C(=O)O)NC1=O [P1, CRWYDENAC] (H-CRWYDENAC-OH; disulfide 1-9; N-terminus and C-terminus assumed)	8.59	6.52	5.81	6.97 ± 1.44	1.00	–	–
C[C@@H]1NC(=O)[C@H](CC(N)=O)NC(=O)[C@H](CCC(=O)O)NC(=O)[C@H](CC(=O)O)NC(=O)[C@H](Cc2ccc(O)cc2)NC(=O)[C@H](Cc2c[nH]c3ccccc23)NC(=O)[C@H](C)NC(=O)[C@@H](N)CSSC[C@@H](C(=O)O)NC1=O [P2, CAWYDENAC] (H-CAWYDENAC-OH; disulfide 1-9; N-terminus and C-terminus assumed)	4.03	12.1	3.58	–	1.06	6.58	–
C[C@@H]1NC(=O)[C@H](CC(N)=O)NC(=O)[C@H](CCC(=O)O)NC(=O)[C@H](CC(=O)O)NC(=O)[C@H](Cc2ccc(O)cc2)NC(=O)[C@H](C)NC(=O)[C@H](CCCNC(=N)N)NC(=O)[C@@H](N)CSSC[C@@H](C(=O)O)NC1=O [P3, CRAYDENAC] (H-CRAYDENAC-OH; disulfide 1-9; N-terminus and C-terminus assumed)	14.4	11.8	13.8	–	0.52	13.3	–
C[C@@H]1NC(=O)[C@H](CC(N)=O)NC(=O)[C@H](CCC(=O)O)NC(=O)[C@H](C)NC(=O)[C@H](Cc2ccc(O)cc2)NC(=O)[C@H](Cc2c[nH]c3ccccc23)NC(=O)[C@H](CCCNC(=N)N)NC(=O)[C@@H](N)CSSC[C@@H](C(=O)O)NC1=O [P5, CRWYAENAC] (H-CRWYAENAC-OH; disulfide 1-9; N-terminus and C-terminus assumed)	0.36	0.22	0.65	–	17.01	0.41	–
C[C@@H]1NC(=O)[C@H](CC(N)=O)NC(=O)[C@H](C)NC(=O)[C@H](CC(=O)O)NC(=O)[C@H](Cc2ccc(O)cc2)NC(=O)[C@H](Cc2c[nH]c3ccccc23)NC(=O)[C@H](CCCNC(=N)N)NC(=O)[C@@H](N)CSSC[C@@H](C(=O)O)NC1=O [P6, CRWYDANAC] (H-CRWYDANAC-OH; disulfide 1-9; N-terminus and C-terminus assumed)	1.21	7.99	3.83	–	1.61	4.34	–
C[C@@H]1NC(=O)[C@H](C)NC(=O)[C@H](CCC(=O)O)NC(=O)[C@H](CC(=O)O)NC(=O)[C@H](Cc2ccc(O)cc2)NC(=O)[C@H](Cc2c[nH]c3ccccc23)NC(=O)[C@H](CCCNC(=N)N)NC(=O)[C@@H](N)CSSC[C@@H](C(=O)O)NC1=O [P7, CRWYDEAAC] (H-CRWYDEAAC-OH; disulfide 1-9; N-terminus and C-terminus assumed)	0.25	0.25	1.37	–	11.19	0.62	–
N=C(N)NCCC[C@H](N)C(=O)N[C@@H](Cc1c[nH]c2ccccc12)C(=O)N[C@@H](Cc1ccc(O)cc1)C(=O)N[C@@H](CC(=O)O)C(=O)N[C@@H](CCC(=O)O)C(=O)N[C@@H](CC(N)=O)C(=O)O [P9, RWYDEN] (H-RWYDEN-OH; N-terminus and C-terminus assumed)	9.69	8.73	13.1	–	0.66	10.5	–
N=C(N)NCCC[C@H](N)C(=O)N[C@@H](Cc1c[nH]c2ccccc12)C(=O)N[C@@H](Cc1ccc(O)cc1)C(=O)N[C@@H](CC(=O)O)C(=O)NCCOCCOCCOCCOCCC(=O)N[C@@H](CCCCNC(=O)CN1CCN(CC(=O)O)CCN(CC(=O)O)CC1)C(=O)O [RWYD-PEG4-K-NOTA] (H-RWYD[PEG4]K(NOTA)-OH)	–	–	–	–	–	–	0.642 ± 0.261
